Results on five compounds are retold here after ChEMBL document CHEMBL2203093, “EC144 is a potent inhibitor of the heat shock protein 90” (J Med Chem, 2012).

Data set [1] is described as follows: Toxicity in po dosed mouse administered as a single dose. In kind it is organism-based. As to conditions: in vivo; call rule not given here.
The nature of data set [2]: Toxicity in po dosed human N87 cell xenografted athymic mouse administered as qd for 5 days per week for 4 weeks. In kind it is organism-based, NCI-N87. As to conditions: in vivo.
A further data set relates to Serum. The data set can be described thus: Drug uptake in human NCI-N87 cell xenografted mouse serum at 6 to 12 mg/kg, po administered as a single dose at 6 to 24 hrs. Further details: route oral. To be noted: in vivo. In kind it is ADME, organism-based.
The subject of another data set is Brain. The data set can be described thus: Drug uptake in human NCI-N87 cell xenografted mouse brain at 6 to 12 mg/kg, po administered as a single dose at 6 to 24 hrs. As to conditions: in vivo. The arrangement: route oral. Type of data set: ADME, organism-based.
A further data set deals with Spleen. The data set can be described thus: Drug uptake in human NCI-N87 cell xenografted mouse spleen at 6 to 12 mg/kg, po administered as a single dose at 6 to 24 hrs. In kind it is ADME, organism-based. The arrangement: route oral. As to conditions: in vivo.
For another data set, the system named is NCI-N87. The data set can be described thus: Drug uptake in human NCI-N87 cells xenografted in mouse at 6 to 12 mg/kg, po administered as a single dose at 6 to 24 hrs. In kind it is ADME, organism-based. The arrangement: route oral. To be noted: in vivo.
Data set [3] is described as follows: Half life in DBA1 mouse spleen at 5 mg/kg, po. Type of data set: ADME, organism-based. The arrangement: dose 5 mg/kg, route oral.
Data set [4] in a line: Half life in DBA1 mouse lymph nodes at 5 mg/kg, po. The arrangement: dose 5 mg/kg, route oral. Type of data set: ADME, organism-based, Lymph node.
The nature of data set [5]: Half life in DBA1 mouse brain at 5 mg/kg, po. In kind it is ADME, organism-based. The arrangement: dose 5 mg/kg, route oral.
A short description of data set [6]: Half life in DBA1 mouse plasma at 5 mg/kg, po. In kind it is ADME, organism-based. The arrangement: dose 5 mg/kg, route oral.
Data set [7] in a line: AUC (infinity) in DBA1 mouse spleen at 5 mg/kg, po. Type of data set: ADME, organism-based. Further details: dose 5 mg/kg, route oral, time infinity.
A short description of data set [8]: AUC (infinity) in DBA1 mouse lymph nodes at 5 mg/kg, po. In kind it is ADME, organism-based, Lymph node. The arrangement: time infinity, dose 5 mg/kg, route oral.
Data set [9] is described as follows: AUC (infinity) in DBA1 mouse brain at 5 mg/kg, po. The arrangement: dose 5 mg/kg, route oral, time infinity. Type of data set: ADME, organism-based.
Data set [10] in a line: AUC (infinity) in DBA1 mouse plasma at 5 mg/kg, po. In kind it is ADME, organism-based. Further details: dose 5 mg/kg, route oral, time infinity.
Data set [11] is described as follows: Tmax in DBA1 mouse lymph nodes at 5 mg/kg, po. In kind it is ADME, organism-based, Lymph node. The arrangement: dose 5 mg/kg, route oral.
Data set [12] can be described thus: Tmax in DBA1 mouse plasma at 5 mg/kg, po. Type of data set: ADME, organism-based. Further details: dose 5 mg/kg, route oral.
The nature of data set [13]: Tmax in DBA1 mouse brain at 5 mg/kg, po. In kind it is ADME, organism-based. Further details: dose 5 mg/kg, route oral.
The nature of data set [14]: Cmax in DBA1 mouse spleen at 5 mg/kg, po. Further details: dose 5 mg/kg, route oral. In kind it is ADME, organism-based.
A short description of data set [15]: Cmax in DBA1 mouse lymph nodes at 5 mg/kg, po. Type of data set: ADME, organism-based, Lymph node. Further details: dose 5 mg/kg, route oral.
The nature of data set [16]: Cmax in DBA1 mouse plasma at 5 mg/kg, po. Type of data set: ADME, organism-based. Further details: dose 5 mg/kg, route oral.
A short description of data set [17]: Cmax in DBA1 mouse brain at 5 mg/kg, po. In kind it is ADME, organism-based. Further details: dose 5 mg/kg, route oral.
Data set [18] is described as follows: Half life in CD-1 mouse at 25 mg/kg, po. Type of data set: ADME, organism-based. Further details: dose 25 mg/kg, route oral. To be noted: in vivo.
Data set [19] deals with Mus musculus. Put plainly: Dose normalized AUC in CD-1 mouse at 25 mg/kg, po. Type of data set: ADME, organism-based. The arrangement: dose 25 mg/kg, route oral. To be noted: in vivo.
Data set [20] is described as follows: AUC in CD-1 mouse at 25 mg/kg, po. In kind it is ADME, organism-based. Further details: dose 25 mg/kg, route oral. As to conditions: plasma.
The nature of data set [21]: Tmax in CD-1 mouse at 25 mg/kg, po. In kind it is ADME, organism-based. Further details: dose 25 mg/kg, route oral. To be noted: in vivo.
Data set [22] can be described thus: Intrinsic clearance in human liver microsomes. In kind it is ADME, Microsome. To be noted: read-out: CLH.
A short description of data set [23]: Intrinsic clearance in rat liver microsomes. Type of data set: ADME, Microsome. To be noted: read-out: CLH.
A short description of data set [24]: Intrinsic clearance in mouse liver microsomes. Type of data set: ADME, Microsome. To be noted: read-out: CLH.
Data set [25] is described as follows: Apparent permeability from apical to basolateral side of human Caco2 cells. In kind it is ADME, cell-based. As to conditions: Caco-2.
A short description of data set [26]: Initial Cmax in CD-1 mouse at 25 mg/kg, po. Type of data set: ADME, organism-based. Further details: dose 25 mg/kg, route oral. To be noted: in vivo.
For data set [27], the system named is Mus musculus. The data set can be described thus: Dose normalized AUC in CD-1 mouse at 100 mg/kg, po. In kind it is ADME, organism-based. The arrangement: dose 100 mg/kg, route oral. To be noted: in vivo.
The nature of data set [28]: Tmax in CD-1 mouse at 100 mg/kg, po. Further details: dose 100 mg/kg, route oral. To be noted: in vivo. Type of data set: ADME, organism-based.
Data set [29] is described as follows: Initial Cmax in CD-1 mouse at 100 mg/kg, po. In kind it is ADME, organism-based. The arrangement: dose 100 mg/kg, route oral. To be noted: in vivo.
The nature of data set [30]: Half life in CD-1 mouse at 5 mg/kg, iv. As to conditions: in vivo. The arrangement: dose 5 mg/kg, route intravenous. In kind it is ADME, organism-based.
For data set [31], the system named is Mus musculus. The data set can be described thus: Dose normalized AUC in CD-1 mouse at 5 mg/kg, iv. Type of data set: ADME, organism-based. To be noted: in vivo. The arrangement: dose 5 mg/kg, route intravenous.
Data set [32] is described as follows: AUC in CD-1 mouse at 5 mg/kg, iv. In kind it is ADME, organism-based. Further details: dose 5 mg/kg, route intravenous. As to conditions: plasma.
Data set [33] can be described thus: Initial Cmax in CD-1 mouse at 5 mg/kg, iv. Type of data set: ADME, organism-based. As to conditions: in vivo. Further details: dose 5 mg/kg, route intravenous.

In [1], `C=CCNC1=C2C[C@@H](C)C[C@H](OC)[C@H](O)[C@@H](C)/C=C(\C)[C@H](OC(N)=O)[C@@H](OC)/C=C\C=C(/C)C(=O)NC(=CC1=O)C2=O` [TANESPIMYCIN] displayed an MTD of 60 mg/kg.

Compound `COc1c(C)cnc(Cn2cc(C#CCC(C)(C)O)c3c(Cl)nc(N)nc32)c1C` returned an MTD at 4 weeks in data set [2] of 10 mg/kg. For the same compound, the Drug uptake entry in the data set with Serum, in the data set on Brain, with Spleen and in the data set on NCI-N87 was “Active” throughout. Besides, the MTD in [1] came to 30 mg/kg. In addition, the half-life in data set [3] was 2 h; in [4], 1.6 h; in data set [5], 2.1 h; in data set [6], 1.2 h; in [18], 1.5 h. Besides, the AUC(0-inf) worked out at 8160 ng·h/mL in data set [7], 5190 ng·h/mL in [8], 4710 ng·h/mL in data set [9] and 2120 ng·h/mL in data set [10]. The Tmax in data set [11] came to 1 h; in [12] it was 4.98 min; in data set [13], 0.5 h; in data set [21], 0.5 h. Moreover, the Cmax in [14] stood at 1890 ng/mL; in data set [15], 2140 ng/mL; in data set [16], 835 ng/mL; in [17] it was 1450 ng/mL; in data set [26], 1560 ng/mL. In the data set with Mus musculus [19], this compound had an AUC/dose of 177 ng·h/mL/mg/kg. The AUC in data set [20] was 4420 ng·h/mL. The CLint scaled in data set [22] is 119 mL/min/kg; in data set [23], 276 mL/min/kg; in [24], 727 mL/min/kg. For the same compound, in data set [25], the Papp A→B amounted to 34.7 ×10⁻⁶ cm/s.

The compound `COc1c(C)cnc(Cn2cnc3c(Cl)nc(N)nc32)c1C` [BIIB021] gave an AUC/dose in the data set with Mus musculus [27] of 48 ng·h/mL/mg/kg. Further, the Tmax in [28] was 4.98 min. In addition, the Cmax in [29] stood at 10000 ng/mL. Further, in data set [25], the Papp A→B was 20 ×10⁻⁶ cm/s.

As to `CC1(C)CC(=O)c2c(C(F)(F)F)nn(-c3ccc(C(N)=O)c(N[C@H]4CC[C@H](O)CC4)c3)c2C1` [SNX-2112], in data set [18], the half-life was 2.9 h. The compound further registered an AUC/dose in the data set on Mus musculus [19] of 341 ng·h/mL/mg/kg. This compound also returned an AUC in [20] of 8520 ng·h/mL. In addition, the Tmax in [21] turned out to be 1 h. In addition, the CLint scaled in data set [22] stood at 54 mL/min/kg; in data set [23], 54 mL/min/kg; in data set [24], 301 mL/min/kg. Further, the Papp A→B in [25] stood at 1.1 ×10⁻⁶ cm/s. This compound displayed a Cmax in data set [26] of 1720 ng/mL.

Compound `CCNC(=O)c1noc(-c2cc(C(C)C)c(O)cc2O)c1-c1ccc(CN2CCOCC2)cc1` [LUMINESPIB] showed a half-life in data set [30] of 6.6 h. The same compound gave an AUC/dose in the data set with Mus musculus [31] of 481 ng·h/mL/mg/kg. Also, the AUC in [32] stood at 2410 ng·h/mL. For the same compound, the Cmax in [33] is 2180 ng/mL. Also, the CLint scaled in data set [22] turned out to be 39 mL/min/kg; in [23], 219 mL/min/kg. Also, the Papp A→B in data set [25] came out at 1.9 ×10⁻⁶ cm/s.
